Laboratory results taken from patent US10907219B2, “Compositions and methods for controlling cellular function” (STC.UNM, priority 2014, dated 2021).
“Also recorded” adds a separate entry of the source.

How the values were obtained:
[1] = system: NES-ABI and PYL-eGFP in CHO cells; assay: H2O2-induced ABA-mediated eGFP nuclear exporting (NES localization); format: cell-based
Experimental: Various cellular events are regulated by the dynamic sub-cellular translocation of proteins. To test if protein translocation can be controlled by H2O2, we used a known ABA-inducible eGFP nuclear exporting system consisting of NES-ABI and PYL-eGFP DNA constructs (FIG. 2a; Liang et al., 2011, Sci. Signal. 4, rs2). CHO cells were transfected with both plasmids for 24 hours and then incubated without additive, or with 10 μM of ABA, ABA-HP, or ABA-HP plus 10 eq of H2O2 for one hour.
NES localization experiments: CHO cells were seeded in 24-well plates at 50 K/well with coverslip for 24 hours. 0.4 μg NES-ABI and 0.2 μg eGFP-PYL (FIG. 2a, ii) of DNA plasmid were used for each well, with 30 μL of Opti-MEM (Life Technologies, Carlsbad, Calif.) and 1.8 μL of PEI. After incubation at room temperature for 15 min, the mixture was added to the cells and cultured for 24 hours. Then, 10 μM ABA-HP was added to the cells 10 minutes prior to the addition of 10 μM ABA and 100 μM of H2O2, or 10 μM GA-HP was added to the cells 10 minutes prior to the addition of 10 μM GA-AM and 100 μM of H2O2. Slides were made 30 minutes after addition of compounds and images were taken the next day.
An Axio Observer D1 fluorescent microscope (Carl Zeiss AG, Oberkochen, Germany) outfitted with HBO 100 microscopy illumination system (Carl Zeiss AG, Oberkochen, Germany; GFP: excitation 470/40 and emission 525/50) was used to analyze GFP expression and NES localization. A 20× objective was used to analyze GFP expression. A 63× objective was used for NES localization.

[2] = Photo-cleavage (uncaging) of caged ABA (HPLC); format: physicochemical; settings: for formation of 2-trans ABA isomer on irradiation: 365 nm photo-cleavage condition; for photo-cleavage by 365 nm light / photo-cleavage by 405 nm light: 10 μM in DMSO
Experimental: (§1) HPLC analysis: Reversed-phase HPLC was performed on an ACCLAIM 120 (4.6×100 mm) C18 column (Thermo Fisher Scientific, Waltham, Mass.) with an ULTIMATE 3000 pump system, including a Variable Wavelength Detector 3100, Degasser 1210, and Autosampler SPS 3000 (Thermo Fisher Scientific, Waltham, Mass.). A mixture of water and acetonitrile containing 0.1% TFA was used as the eluent. Absorbance at 250 nm was used to monitor the elution of the molecules. The method used an increase in acetonitrile from 5% to 95% over 15 minutes to elute the molecules at a flow rate of 0.7 mL/min. The peaks for the molecules were integrated by using Chromeleon software (Thermo Fisher Scientific, Waltham, Mass.). The molar absorptivity of both free and caged ABA at 250 nm were measured, which was used to calculate the concentration of each species from the intensity of absorbance at 250 nm. The relative concentration of each compound was used to calculate the percent concentration of free ABA relative to the concentration of total ABA species (both caged and uncaged).
Photo-irradiation: Irradiation at 365 nm was performed with an Axio Observer (Carl Zeiss AG, Oberkochen, Germany) microscope with an HBO103 W/2 mercury arc lamp (Carl Zeiss AG, Oberkochen, Germany). Irradiation was performed by using a DAPI filter (Carl Zeiss AG, Oberkochen, Germany), set with peak excitation at 365 nm (power density: 23 mW cm^2) and a spectral width of 50 nm. No objective lens was used for whole-well irradiation, which created an area of illumination that nearly completely covered one well of a 24-well plate. Light was transmitted through the bottom of the well of polystyrene plate. Irradiation at 405 nm was performed by using an adjustable focus violet purple laser pointer (LazerPoint SKU 0733579), with an excitation wavelength of 405 nm and 1000 mW intensity positioned 8 cm above the bottom of either a 96-well or 24-well plate and irradiated through the polystyrene lid. All samples for HPLC analysis were irradiated in DMSO to prevent evaporation of solvent and changes in sample concentration. Irradiation of cell cultures was performed in 24-well plates containing culture medium (500 μL).

[3] = system: CHO cells transfected with ABA-inducible luciferase constructs; assay: ABA-inducible luciferase assay; format: cell-based
[4] = system: myr-ABI and PYL-eGFP-Tiam1 in CHO cells; assay: H2O2-induced ruffle formation (Tiam1 membrane localization); format: cell-based
Description: To further investigate whether a complex biological process can be triggered by H2O2-induced protein dimerization, we examined the membrane ruffle formation resulting from localized Rho GTPase activation. Tiam1 is a guanine exchange factor for Rac, a member of Rho GTPase. The membrane translocation of Tiam1 activated Rac signaling pathway and induced ruffle formation, which is involved in cell migration and morphogenesis. We constructed an ABA-inducible Tiam1 membrane localization system, which consists of DNA plasmids encoding the membrane-localized ABI (myr-ABI; Liang et al., 2011, Sci. Signal. 4, rs2) and the cytoplasmic eGFP/PYL-fused Tiam1 (PYL-eGFP-Tiam1) (FIG. 2a). CHO cells were transfected with these plasmids for 24 hours and then incubated for one hour without additive, or with 10 μM of ABA, ABA-HP or ABA-HP plus 10 eq of H2O2. The ruffle formation in cells was analyzed by the confocal microscopy.
Ruffle generation experiment: CHO were seeded in 24-well plates at 50 K/well with coverslip for 24 hours. 0.1 μg PYL-eGFP-Tiam1 and 0.1 μg myr-ABI (FIG. 2a, iii) of DNA plasmid were used for each well, with 30 μL of Opti-MEM (Life Technologies, Carlsbad, Calif.) and 1.8 μL PEI. After incubation at room temperature for 15 min, the mixture was added to the cells and cultured for 24 hours. […]

[5] = Chemical stability of caged ABA in HEPES buffer/DMSO in the dark (HPLC); format: physicochemical; settings: 70% HEPES buffer/30% DMSO, 37° C., 24 h
Experimental: FIG. 26. Chemical stability of ABA-DMNB. ABA-DMNB was incubated in 70% HEPES buffer/30% DMSO at 37° C. for 24 h in the dark. The samples were analyzed by HPLC.
FIG. 32. Chemical stability of ABA-DEACM. ABA-DEACM was incubated in 70% HEPES buffer/30% DMSO at 37° C. for 24 h in the dark. The samples were analyzed by HPLC and absorbance was monitored at 250 nm.
as §1, with “The relative concentration of each compound was used to calculate the percent concentration of free ABA relative to the concentration of total ABA species (both caged and uncaged).” left out

[6] = 10 μM, compound alone, CHO cells
[7] = 10 μM plus 10 eq of H2O2, CHO cells

CC1=CC(=O)CC(C)(C)C1(O)/C=C/C(C)=C\C(=O)O (centres unmarked) [ABA, abscisic acid, reference compound]
sub-cellular location of PYL-eGFP [1, 6]: localized out of the nucleus
formation of 2-trans ABA isomer on irradiation [2]: very little 2-trans isomer was produced
dose dependence of gene expression ([3]; increasing dosages, not irradiated): dose-dependent induction of gene expression
ruffle formation [4, 6]: showed obvious ruffle formation

CCN(CC)c1ccc2c(COC(=O)/C=C(C)\C=C\[C@@]3(O)C(C)=CC(=O)CC3(C)C)cc(=O)oc2c1 [ABA-DEACM]
photo-cleavage by 365 nm light [2]: cannot be cleaved effectively under 365 nm light; also recorded: cannot be cleaved efficiently by 365 nm light
photo-cleavage by 405 nm light [2]: cleaved rapidly to give ABA within a few minutes
irradiation time to complete cleavage ([2]; 405 nm light): ≤ 4 min
formation of isomerized ABA on irradiation ([2]; 405 nm uncaging): isomerized ABA was also produced
chemical stability in biological buffer in the dark [5]: no chemical decomposition; also recorded: stable chemically

COc1cc(COC(=O)/C=C(C)\C=C\[C@@]2(O)C(C)=CC(=O)CC2(C)C)c([N+](=O)[O-])cc1OC [ABA-DMNB]
irradiation time after which free ABA is regenerated ([2]; 10 μM and 100 μM, 365 nm UV light): 120 s
photo-cleavage by 365 nm light [2]: rapidly regenerated from the photo-uncaging of ABA-DMNB within a min
photo-cleavage by 405 nm light [2]: cannot efficiently uncage
irradiation time to regenerate free ABA ([2]; 100 μM, 365 nm light): ≤ 2 min
formation of 2-trans ABA isomer on irradiation [2]: near equal amount
dose dependence of luciferase expression ([3]; increasing concentrations, with irradiation): corresponding increases in the level of luciferase expression
luciferase expression ([3]; irradiated 365 nm UV 120 seconds in cell culture, twelve hours): induced luciferase expression
chemical stability in biological buffer in the dark [5]: no chemical decomposition; also recorded: stable at 37 °C in biological buffer in the dark for 24 hours

CC1=CC(=O)CC(C)(C)[C@@]1(O)/C=C/C(C)=C\C(=O)OCc1ccc(B2OC(C)(C)C(C)(C)O2)cc1 [ABA-HP]
sub-cellular location of PYL-eGFP [1, 7]: caused rapid nuclear export
sub-cellular location of PYL-eGFP [1, 6]: did not change the sub-cellular location of eGFP-PYL
ruffle formation [4, 7]: showed obvious ruffle formation
